{"source": "patent US20120302609A1", "about": "“Pyrazolines for the Modulation of PKM2” (Dynamix Pharmaceuticals LTD., priority 2011, published 2012)", "key": {"[1]": {"system": "H1299 (Non-small cell lung carcinoma cell line)", "experiment": "Cell proliferation index assay, Assay Protocol II (Fluofarma, flow cytometry)", "format": "cell-based", "details": "Homo sapiens, NCI-H1299", "method": "In a second assay to determine the inhibition of cell proliferation by a test compound, cell proliferation of the cell line of interest was measured by a cell proliferation index assay using Fluofarma (www.fluofarma.com) based technology. This assay is based on the dilution rate of a fluorescent membrane marker, which is a direct function of the number of cell divisions. Briefly, the assay is performed by loading the cells with a non-toxic fluorescent phospholipid analog before the seeding. […] Flow cytometry analysis of the fluorescent probe is performed after the loading of the cells both prior to, as well as after treatment with various concentrations of the test compound. The dilution rate of the fluorescent probe at the single cell level is directly correlated to the number of cell divisions."}, "[2]": {"system": "H1299 Human Non-Small Cell Lung Carcinoma", "experiment": "H1299 human non-small cell lung carcinoma nude mouse xenograft model, tumor growth delay", "format": "in vivo, mice", "method": "The animals were fed ad libitum water (reverse osmosis, 1 ppm Cl) and NIH 31 Modified and Irradiated Lab Diet® consisting of 18.0% crude protein, 5.0% crude fat, and 5.0% crude fiber. The mice were housed on irradiated Enrich-o′ Cobs™ Laboratory Animal Bedding in static microisolators on a 12-hour light cycle at 20-22° C. (68-72° F.) and 40-60% humidity.\nH1299 (NCI-H1299) NSCLC cells were obtained from the American Type Culture Collection, which reports the cell line to have originated from a lymph node metastasis and to lack p53 expression. The cell line was maintained as exponentially growing cultures in RPMI-1640 medium supplemented with 10% fetal bovine serum, 2 mM glutamine, 100 units/mL penicillin G sodium, 100 μg/mL streptomycin sulfate, 25 μg/mL gentamicin, 10 mM HEPES, and 0.075% sodium bicarbonate. The tumor cells were cultured in tissue culture flasks in a humidified incubator at 37° C., in an atmosphere of 5% CO2 and 95% air.\nH1299 tumor cells were harvested during log phase growth and suspended in cold PBS. Each nude mouse was inoculated subcutaneously in the right flank with 0.2 mL of the cell suspension (1×10^7 cells). The tumors were periodically calipered in two dimensions to monitor size as the mean volume approached the desired 90-130 mm^3 range. Tumor size was calculated by the following formula:\nwhere w=width and l=length, in mm, of the tumor. Tumor weight may be estimated with the assumption that 1 mg is equivalent to 1 mm^3 of tumor volume.\nCompound 13A (MW 467.51, code-named XT26) was provided as a powder stored at −20° C., and protected from light during storage and handling. Dosing suspensions, in 0.5% carboxymethyl cellulose and 1% Tween® 80 in deionized water (Vehicle), were prepared fresh for each dose, and kept at 4° C. post formulation. Gemcitabine (Gemzar®, Lilly, 38 mg/mL, Lot # A866884A) was stored at room temperature. A fresh 12 mg/mL gemcitabine dosing solution was prepared on each treatment day by diluting an aliquot of the stock solution with saline.\nDosing began on D1 in four groups of mice (n=12/group in Groups 1, 3, and 4; n=6 in Group 2). XT26 and its vehicle were administered intraperitoneally (i.p.) twice daily for 28 days (b.i.d.×28), starting with the p.m. dose on D1 and ending with the a.m. dose on D29. Gemcitabine was administered i.p. once daily at three-day intervals for four doses (q3d×4). In all groups, the dosing volume of 10 ml/kg (0.2 ml/20 g mouse) was scaled to the weight of each individual animal, as measured twice weekly.\nGroup 1 mice received the XT26 vehicle b.i.d.×28, and served as the controls for the study. Group 2 received gemcitabine at 120 mg/kg. Group 3 was to receive XT26 at 100 mg/kg b.i.d.×28; on D21, four mice (Animals 1, 3, 4, and 5) erroneously received 200 mg/kg XT26 for their a.m. dose. […] Group 4 dosing at 200 mg/kg resumed on D17 on a qd (once daily)×13 dosing schedule. Because of a scheduling error, the D19 dose for Group 4 mice was omitted; qd dosing occurred on Days 17, 18, and 20-28.\nTumors were calipered twice weekly for the duration of the study, and each animal was euthanized when its neoplasm reached the predetermined endpoint volume (1200 mm^3) or at the end of the study, whichever came first. Animals that exited the study for tumor growth were documented as euthanized for tumor progression (TP), with the date of euthanasia. The time to endpoint (TTE) for each mouse was calculated by the following equation: […]\nwhere TTE is expressed in days, endpoint volume is expressed in mm^3, b is the intercept, and m is the slope of the line obtained by linear regression of a log-transformed tumor growth data set."}, "[3]": {"details": "Group 1 vs 3: XT26 ip bid × 28, 100 mg/kg"}, "[4]": {"details": "XT26 200 mg/kg ip bid × 8, then qd"}, "[5]": {"details": "XT26 200 mg/kg ip bid × 8, then qd on Days 17, 18, 20-28"}}, "note": "Several values for one entry are separate records, joined by “and”; a condition that tells them apart may be missing. Equal values may be shown once.", "data": [{"smiles": "CCS(=O)(=O)Nc1ccc(C2=NN(C(C)=O)C(c3ccc(OC)cc3)C2)cc1", "note": "(racemic) [Compound 1A, N-(4-(1-acetyl-5-(4-methoxyphenyl)-4,5-dihydro-1H-pyrazol-3-yl)phenyl)ethanesulfonamide]", "values": [{"measurement": "IC50", "setting": "[1]", "value": "40 to 100", "unit": "µM"}]}, {"smiles": "COc1ccc([C@@H]2CC(c3ccc(NS(=O)(=O)c4ccc(F)cc4)cc3)=NN2C(C)=O)cc1", "note": "[Compound 13A, (S)—N-(4-(1-acetyl-5-(4-methoxyphenyl)-4,5-dihydro-1H-pyrazol-3-yl)phenyl)-4-fluorobenzenesulfonamide]", "values": [{"measurement": "Are the survival curves sig different?", "setting": "[2]; [3]", "value": "Yes"}, {"measurement": "Hazard Ratio", "setting": "[2]; [3]", "value": 2.315}, {"measurement": "Median survival Ratio", "setting": "[2]; Group 1 vs 3: vehicle / XT26 100 mg/kg", "value": 0.8022}, {"measurement": "% TGD", "setting": "[2]; XT26 100 mg/kg ip bid × 28", "value": 24, "unit": "%"}, {"measurement": "Regressions CR", "setting": "[2]; XT26 100 mg/kg ip bid × 28", "value": 0}, {"measurement": "Regressions PR", "setting": "[2]; XT26 100 mg/kg ip bid × 28", "value": 0}, {"measurement": "Regressions TFS", "setting": "[2]; XT26 100 mg/kg ip bid × 28", "value": 0}, {"measurement": "Median TTE", "setting": "[2]; XT26 100 mg/kg ip bid × 28, endpoint 1200 mm^3, 28-day study", "value": 23.2, "unit": "days"}, {"measurement": "MTV (n) Day 28", "setting": "[2]; XT26 100 mg/kg ip bid × 28, median tumor volume of animals not at endpoint (n in brackets), 100 mg/kg", "value": "1080 mm^3 and 1080 (3) mm^3"}, {"measurement": "T − C", "setting": "[2]; XT26 100 mg/kg ip bid × 28, vs Group 1 vehicle", "value": 4.5, "unit": "days"}, {"measurement": "Regressions CR", "setting": "[2]; [4]", "value": 0}, {"measurement": "Regressions PR", "setting": "[2]; [4]", "value": 0}, {"measurement": "Regressions TFS", "setting": "[2]; [4]", "value": 0}, {"measurement": "% TGD", "setting": "[2]; [5]", "value": 13, "unit": "%"}, {"measurement": "T − C", "setting": "[2]; [5]", "value": 2.5, "unit": "days"}, {"measurement": "Median TTE", "setting": "[2]; XT26 200 mg/kg ip bid × 8, then qd on Days 17, 18, 20-28, n = 9", "value": 21.2, "unit": "days"}, {"measurement": "MTV (n) Day 28", "setting": "[2]; XT26 200 mg/kg ip bid × 8, then qd, animals not at endpoint (n in brackets), 200 mg/kg", "value": "527 mm^3 and 527 (1) mm^3"}, {"measurement": "Median survival", "setting": "[2]; XT26 ip bid × 28, 100 mg/kg (Column B = treated group)", "value": 23.25}, {"measurement": "survival advantage relative to the vehicle treatment", "setting": "[2]; discontinuous 200 mg/kg XT26 therapy, five mice remaining after D10", "value": "little or no survival advantages"}]}]}
